Each structure is given as a SMILES string. Calls of active or inactive are those of the source. No cut-off for these calls is given here.

Common to all, as to type: functional, organism-based
For assay [1], the system named is Leishmania tarentolae. The experiment in a line: Growth inhibition of light-illuminated Leishmania tarentolae promastigotes assessed as enhancement of mitochondrial superoxide production at 5 to 10 uM after 3 hrs by confocal fluorescence microscopy.
The test system of assay [2] is Leishmania tarentolae. Nature of the assay: Growth inhibition of Leishmania tarentolae axenic promastigotes upto 40 uM.
In assay [3] the test system is Leishmania tarentolae. Nature of the assay: Growth inhibition of Leishmania tarentolae axenic promastigotes after 2 days relative to ethanol.
The subject of assay [4] is Leishmania tarentolae. Nature of the assay: Growth inhibition of Leishmania tarentolae promastigotes assessed as mitochondrial superoxide production at 5 to 10 uM after 3 hrs by confocal fluorescence microscopy.
For assay [5], the system named is Leishmania tarentolae. The experiment in a line: Induction of mitochondrial singlet oxygen production in Leishmania tarentolae promastigotes at 2 uM by confocal fluorescence microscopy.

On to `CCC1=C(CC)/C2=C/c3[nH]c(c(C)c3CC)/C=C3/c4ccccc4/C(=C/C4=NC(=C\C1=N2)/C(CC)=C4C)C3(OC)OC`, for which the outcome in assay [1], in assay [4] and in assay [5] was Active. For the same compound, the outcome in assay [2] was inactive. In assay [3], the Activity result is “Dose-dependent effect”.
As for `CCOC1(OCC)/C2=C\C3=NC(=C\C4=NC(=C\c5[nH]c(c(C)c5CC)/C=C\1c1ccccc12)/C(CC)=C4CC)/C(CC)=C3C`, the outcome in assay [1] and in assay [4] was Active. Also, the outcome in assay [2] was inactive. The Activity entry in assay [3] was “Dose-dependent effect”.

The values are drawn from ChEMBL document CHEMBL1157502, “Carbaporphyrin ketals as potential agents for a new photodynamic therapy treatment of leishmaniasis” (Bioorg Med Chem, 2008).
